Laboratory results published in article PMC12162873, “Modulating phosphatase DUSP22 with BML-260 ameliorates skeletal muscle wasting via Akt independent JNK-FOXO3a repression” (EMBO Molecular Medicine, 2025).
Where “and” joins values, the source holds several entries; their conditions need not be identical. Equal entries are not always repeated. Entries after “also recorded” stand apart in the source; their conditions may differ. Where two headings read alike, the source gives them in different places.

Columns and labels:
C2C12 myotubes = assay: SUnSET assay of protein synthesis; assay type: cell-based, mouse; details: 10 μM Dex 24 h, 12.5 μM BML-260
Method: The surface sensing of translation (SUnSET) assay was used to measured protein synthesis, in accordance with the published protocol (Vinel et al, [2018]). In brief, 1 μg/mL puromycin was added to the myotube cultures and cell lysates were then harvested 10 min later. Western blotting was carried out using an anti-puromycin 12D10 antibody (MABE343; Millipore).

human skeletal myotubes = assay: Dex-induced atrophy of human donor skeletal myotubes, myotube diameter; assay type: cell-based; details: 10 μM Dex and 12.5 μM BML-260 for 24 h
Text: Figure 9 DUSP22 targeting downregulates atrogene expression in immobilized skeletal muscle and inhibits atrophy in human donor myotubes. (A) Effect of immobilization on skeletal muscle mass using the plastic EP tube method (n = 3). (B) qPCR analysis of DUSP22 expression in the TA muscle (IM = immobilized) (n = 3) (p = 0.018). (C) Plot of DUSP22 expression in relation to TA mass (n = 6). (D) Western blot analysis of DUSP22 expression (n = 3) (p = 0.1699). (E) TA mass (n = 9,7) (p = (Sham = <0.0001, BML-260 = 0.007)). […] Quantification of atrogin-1, MuRF-1, and DUSP22 levels relative to GAPDH are also shown. […]
Human skeletal myoblasts were purchased from Thermo-Fisher Scientific, USA, re-suspended in DM and seeded onto 12-well culture plates at a density of 4.8 × 10^4 cells/well. 72 h later, the differentiated myotubes were treated with 10 μM Dex for 24 h, stained with haematoxylin and eosin (H&E) using a kit (Merck, Germany) and myotube diameter measured by light microscopy analysis of DIC captured images (Olympus CKX41, Olympus Life Science, Japan) and the NIH imaging software Image J 64 (National Institutes of Health, MD, USA). At least 80 myotubes in 5 micrographs were measured in each experimental group.

[1] = Pharmacokinetics analysis, plasma (LC-MS/MS); assay type: in vivo, mouse; parameters: peak plasma concentration after injection: unit not given here; details: for Plasma Conc. / Plasma Conc., Mean / concentration at 0.25 h / concentration at 0.5 h / concentration at 1.5 h / concentration at 2 h / concentration at 8 h: 5 mg/kg (IP); for concentration at 0.25 h / concentration at 0.5 h / concentration at 1.5 h / concentration at 2 h / concentration at 8 h: intraperitoneal, 5 mg/kg
Method: Assessment of BML-260 pharmacokinetics (PK) was carried out by the company Chaon, Yongin-si, Republic of Korea. BML-260 was administered intraperitoneally at a dose of 5 mg/kg in an injection volume of 10 mL/kg. A total of 21 6-week-old male C57BL/6J mice were divided into two groups as follows: 1) PK (plasma) group (3 mice) and 2) PK (TA muscle) group (18 mice across 6 time points).
[…] Blood was centrifuged to obtain plasma that was then stored at −80 °C. For the PK (TA muscle) group, mice were euthanized at 0.5, 1, 1.5, 2, 6, and 12 h post-administration. The TA muscle was weighed and stored at −80 °C.
BML-260 levels in plasma and tissue samples were analyzed with liquid chromatography-tandem mass spectrometry (LC-MS/MS) using an Agilent 1200 HPLC system coupled with an AB Sciex 4000 QTrap MS/MS (Agilent Technologies, CA, USA). Quantification limits were determined based on a signal-to-noise ratio greater than 10, with precision below 20% and accuracy between 80% and 120%.

[2] = parameters: method as in ref [9] Feng et al, 2019; details: pH range 3 to 7.4, HPLC; ref [9] Feng et al, 2019; cited from earlier work

Plasma Conc. ([1]; 0.25 h, individual animals): 15.310 ng/mL and 14.890 ng/mL
Plasma Conc. ([1]; 0.5 h, individual animals): 9.450 ng/mL and 9.888 ng/mL
Plasma Conc. ([1]; 1.5 h, individual animals): 6.230 ng/mL and 6.772 ng/mL
Plasma Conc. ([1]; 2 h, individual animals): 5.288 ng/mL and 4.936 ng/mL
Plasma Conc. ([1]; 8 h, individual animals): 0.232 ng/mL and 0.333 ng/mL
Plasma Conc. ([1]; 12 h, individual animals): BQL
Plasma Conc., Mean ([1]; 12 h, n = 3): BQL
Plasma Conc. ([1]; 24 h, individual animals): BQL
Plasma Conc., Mean ([1]; 24 h, n = 3): BQL
time by which plasma concentration is undetectable ([1]; 5 mg/kg IP, as read by referee #2): ~ 8 hours
peak plasma concentration after injection ([1]; 5 mg/kg IP, as read by referee #2 from the PK figure): 16
concentration at 0.25 h ([1]; male, C57BL/6J, mouse, plasma, 0.25 h, individual animals, read-out: Plasma Conc.): 18.1 ng/mL
concentration at 0.25 h ([1]; male, C57BL/6J, mouse, plasma, 0.25 h, n = 3, read-out: Plasma Conc., Mean): 16.1 ng/mL
concentration at 0.5 h ([1]; male, C57BL/6J, mouse, plasma, 0.5 h, individual animals, read-out: Plasma Conc.): 11.4 ng/mL
concentration at 0.5 h ([1]; male, C57BL/6J, mouse, plasma, 0.5 h, n = 3, read-out: Plasma Conc., Mean): 10.3 ng/mL
concentration at 1.5 h ([1]; male, C57BL/6J, mouse, plasma, 1.5 h, individual animals, read-out: Plasma Conc.): 6.66 ng/mL
concentration at 1.5 h ([1]; male, C57BL/6J, mouse, plasma, 1.5 h, n = 3, read-out: Plasma Conc., Mean): 6.55 ng/mL
concentration at 2 h ([1]; male, C57BL/6J, mouse, plasma, 2 h, individual animals, read-out: Plasma Conc.): 4.85 ng/mL
concentration at 2 h ([1]; male, C57BL/6J, mouse, plasma, 2 h, n = 3, read-out: Plasma Conc., Mean): 5.03 ng/mL
concentration at 8 h ([1]; male, C57BL/6J, mouse, plasma, 8 h, individual animals, read-out: Plasma Conc.): 0.248 ng/mL
concentration at 8 h ([1]; male, C57BL/6J, mouse, plasma, 8 h, n = 3, read-out: Plasma Conc., Mean): 0.271 ng/mL
half-life ([1]; male, C57BL/6J, mouse, plasma, 5 mg/kg IP, as read by referee #2): ~1 h
SMILES: O=C(O)c1ccc(N2C(=O)C(=Cc3ccccc3)SC2=S)cc1 (stereo in doubt) [BML-260]
protein synthesis (puromycin incorporation) (C2C12 myotubes): prevented the reduction in protein synthesis
mean myotube diameter (human skeletal myotubes): recovered the mean myotube diameter
detection in plasma after IP delivery ([1]; 5 mg/kg IP): detectable in the plasma immediately after intraperitoneal; also recorded: could be detected in the plasma
stability at pH values within normal physiological conditions [2]: predicted to be stable
